Assay results as given in patent publication US8759342B2, “Benzo[1,4]oxazin-3-one, benzo[1,4]thiazin-3-one and quinolin-2-one urotensin II receptor antagonists” (Janssen Pharmaceutica NV, priority 2006, dated 2014).

Target: T1, rat GPR14 (U-II receptor) (Rattus norvegicus, UniProt P49684)
T1 construct: expressed in transfected cells
T1 sequence (P49684 1-386): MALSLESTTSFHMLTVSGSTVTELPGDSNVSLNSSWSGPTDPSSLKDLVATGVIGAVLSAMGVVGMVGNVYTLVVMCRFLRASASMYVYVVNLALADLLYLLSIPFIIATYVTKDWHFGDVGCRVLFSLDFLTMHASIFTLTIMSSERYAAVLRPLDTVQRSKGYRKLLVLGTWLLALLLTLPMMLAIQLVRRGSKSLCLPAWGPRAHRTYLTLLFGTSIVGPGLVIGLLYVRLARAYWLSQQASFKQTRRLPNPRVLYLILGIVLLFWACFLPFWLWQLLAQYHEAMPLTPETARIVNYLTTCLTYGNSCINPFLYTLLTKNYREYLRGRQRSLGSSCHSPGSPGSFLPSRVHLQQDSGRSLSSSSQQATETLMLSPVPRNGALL
Assay: Calcium flux assay (FLIPR)
Type: cell-based
Conditions: Inhibition of acetyl-cyclic[Cys-Phe-Trp-Lys-(2-Nal)-Cys]-NH2 (1 nM) induced Ca2+ mobilization (FLIPR) in CHO cells transfected with rat UII receptor; 5 min incubation
Source text: To derive these cells, the complete coding sequence of rat […] was amplified by nested PCR from rat heart marathon-Ready cDNA. […] The PCR products were cloned into pcDNA3 (Invitrogen) digested with EcoR I and Xba I. Clones containing rat U-II receptor were verified by complete sequencing of the U-II receptor insert to ensure a lack of PCR-introduced errors. The constructed vector was transfected into CHO cells by using lipofectamine (GIBCO BRL). CHO cells with high expression of rat U-II receptor were selected and established as stable cell lines by using G418. CHO cells were seeded at 25,000 cells per well into 96-well, black-wall, clear-bottom microtiter plates 24 hrs before assay. Cells in culture media (DMEM/F12 containing 15 mM HEPES, L-glutamine, pyridoxine hydrochloride; 10% fetal bovine serum; 1 mg/mL G418 sulfate; antibiotic-antimycotic; pH 7.4) were loaded with proprietary dye, from the FLIPR Calcium Assay Kit (Molecular Devices), prepared in assay buffer (Hanks Balanced Salts Solution, 20 mM HEPES, 0.1% BSA, 2.5 mM probenecid, pH 7.4), and incubated for 1 hr at 37° C. Calcium mobilization determinations were performed at room temperature (23° C.).

Row | SMILES | IC50 [µM]
1 | COCCNC(=O)c1ccccc1C1CCN(CCN2C(=O)COc3ccccc32)CC1 [Cpd 36, N-(2-methoxy-ethyl)-2-{1-[2-(3-oxo-2,3-dihydro-benzo[1,4]oxazin-4-yl)-ethyl]-piperidin-4-yl}-benzamide] | 25
2 | COCCCNC(=O)c1ccccc1C1CCN(CCN2C(=O)COc3ccccc32)CC1 [Cpd 37, N-(3-methoxy-propyl)-2-{1-[2-(3-oxo-2,3-dihydro-benzo[1,4]oxazin-4-yl)-ethyl]-piperidin-4-yl}-benzamide] | 30
3 | CCOCCCNC(=O)c1ccccc1C1CCN(CCN2C(=O)COc3ccccc32)CC1 [Cpd 38, N-(3-ethoxy-propyl)-2-{1-[2-(3-oxo-2,3-dihydro-benzo[1,4]oxazin-4-yl)-ethyl]-piperidin-4-yl}-benzamide] | 23
4 | O=C(NCCCO)c1ccccc1C1CCN(CCN2C(=O)COc3ccccc32)CC1 [Cpd 39, N-(3-hydroxy-propyl)-2-{1-[2-(3-oxo-2,3-dihydro-benzo[1,4]oxazin-4-yl)-ethyl]-piperidin-4-yl}-benzamide] | 32
5 | O=C(NCCc1ccc(C(F)(F)F)cc1)c1ccccc1C1CCN(CCN2C(=O)COc3ccccc32)CC1 [Cpd 40, 2-{1-[2-(3-oxo-2,3-dihydro-benzo[1,4]oxazin-4-yl)-ethyl]-piperidin-4-yl}-N-[2-(4-trifluoromethyl-phenyl)-ethyl]-benzamide] | 4
6 | O=C(NCc1ccccn1)c1ccccc1C1CCN(CCN2C(=O)COc3ccccc32)CC1 [Cpd 41, 2-{1-[2-(3-oxo-2,3-dihydro-benzo[1,4]oxazin-4-yl)-ethyl]-piperidin-4-yl}-N-pyridin-2-ylmethyl-benzamide] | 21
7 | O=C(NCCc1ccccn1)c1ccccc1C1CCN(CCN2C(=O)COc3ccccc32)CC1 [Cpd 42, 2-{1-[2-(3-oxo-2,3-dihydro-benzo[1,4]oxazin-4-yl)-ethyl]-piperidin-4-yl}-N-(2-pyridin-2-yl-ethyl)-benzamide] | 20
8 | O=C(NCc1cccnc1)c1ccccc1C1CCN(CCN2C(=O)COc3ccccc32)CC1 [Cpd 43, 2-{1-[2-(3-oxo-2,3-dihydro-benzo[1,4]oxazin-4-yl)-ethyl]-piperidin-4-yl}-N-pyridin-3-ylmethyl-benzamide] | 18
9 | O=C(NCc1ccncc1)c1ccccc1C1CCN(CCN2C(=O)COc3ccccc32)CC1 [Cpd 44, 2-{1-[2-(3-oxo-2,3-dihydro-benzo[1,4]oxazin-4-yl)-ethyl]-piperidin-4-yl}-N-pyridin-4-ylmethyl-benzamide] | 21
10 | O=C(NCCc1ccncc1)c1ccccc1C1CCN(CCN2C(=O)COc3ccccc32)CC1 [Cpd 45, 2-{1-[2-(3-oxo-2,3-dihydro-benzo[1,4]oxazin-4-yl)-ethyl]-piperidin-4-yl}-N-(2-pyridin-4-yl-ethyl)-benzamide] | 16
11 | O=C(NCc1cccs1)c1ccccc1C1CCN(CCN2C(=O)COc3ccccc32)CC1 [Cpd 46, 2-{1-[2-(3-oxo-2,3-dihydro-benzo[1,4]oxazin-4-yl)-ethyl]-piperidin-4-yl}-N-thiophen-2-ylmethyl-benzamide] | 6
12 | O=C(NCCc1cccs1)c1ccccc1C1CCN(CCN2C(=O)COc3ccccc32)CC1 [Cpd 47, 2-{1-[2-(3-oxo-2,3-dihydro-benzo[1,4]oxazin-4-yl)-ethyl]-piperidin-4-yl}-N-(2-thiophen-2-yl-ethyl)-benzamide] | 7
13 | O=C(NCCCn1ccnc1)c1ccccc1C1CCN(CCN2C(=O)COc3ccccc32)CC1 [Cpd 48, N-(3-imidazol-1-yl-propyl)-2-{1-[2-(3-oxo-2,3-dihydro-benzo[1,4]oxazin-4-yl)-ethyl]-piperidin-4-yl}-benzamide] | 43
14 | CC(=O)NCCNC(=O)c1ccccc1C1CCN(CCN2C(=O)COc3ccccc32)CC1 [Cpd 49, N-(2-acetylamino-ethyl)-2-{1-[2-(3-oxo-2,3-dihydro-benzo[1,4]oxazin-4-yl)-ethyl]-piperidin-4-yl}-benzamide] | 38
15 | O=C(NCCCN1CCCC1=O)c1ccccc1C1CCN(CCN2C(=O)COc3ccccc32)CC1 [Cpd 51, 2-{1-[2-(3-oxo-2,3-dihydro-benzo[1,4]oxazin-4-yl)-ethyl]-piperidin-4-yl}-N-[3-(2-oxo-pyrrolidin-1-yl)-propyl]-benzamide] | 22
16 | O=C(NCCN1CCCCC1)c1ccccc1C1CCN(CCN2C(=O)COc3ccccc32)CC1 [Cpd 52, 2-{1-[2-(3-oxo-2,3-dihydro-benzo[1,4]oxazin-4-yl)-ethyl]-piperidin-4-yl}-N-(2-piperidin-1-yl-ethyl)-benzamide] | 16

Row | SMILES | IC50 [µM]
17 | O=C(c1ccccc1C1CCN(CCN2C(=O)COc3ccccc32)CC1)N1CCc2ccccc2C1 [Cpd 53, 4-(2-{4-[2-(3,4-dihydro-1H-isoquinoline-2-carbonyl)-phenyl]-piperidin-1-yl}-ethyl)-4H-benzo[1,4]oxazin-3-one] | 18
18 | O=C(NCCNC(=O)c1ccccc1C1CCN(CCN2C(=O)COc3ccccc32)CC1)Nc1ccc2ccccc2c1 [Cpd 54, N-[2-(3-naphthalen-2-yl-ureido)-ethyl]-2-{1-[2-(3-oxo-2,3-dihydro-benzo[1,4]oxazin-4-yl)-ethyl]-piperidin-4-yl}-benzamide] | 7
19 | COC(=O)c1cc(Cl)ccc1C1CCN(CCN2C(=O)COc3ccccc32)CC1 [Cpd 56, 5-chloro-2-{1-[2-(3-oxo-2,3-dihydro-benzo[1,4]oxazin-4-yl)-ethyl]-piperidin-4-yl}-benzoic acid methyl ester] | 8
20 | CN(C)C(=O)c1cc(Cl)ccc1C1CCN(CCN2C(=O)COc3ccccc32)CC1 [Cpd 59, 5-chloro-N,N-dimethyl-2-{1-[2-(3-oxo-2,3-dihydro-benzo[1,4]oxazin-4-yl)-ethyl]-piperidin-4-yl}-benzamide] | 10
21 | O=C(NCCc1c[nH]c2ccccc12)c1cc(Cl)ccc1C1CCN(CCN2C(=O)COc3ccccc32)CC1 [Cpd 62, 5-chloro-N-[2-(1H-indol-3-yl)-ethyl]-2-{1-[2-(3-oxo-2,3-dihydro-benzo[1,4]oxazin-4-yl)-ethyl]-piperidin-4-yl}-benzamide] | 0.9
22 | O=C(NCC1CCN(C(=O)c2ccccc2)CC1)c1cc(Cl)ccc1C1CCN(CCN2C(=O)COc3ccccc32)CC1 [Cpd 64, N-(1-benzoyl-piperidin-4-ylmethyl)-5-chloro-2-{1-[2-(3-oxo-2,3-dihydro-benzo[1,4]oxazin-4-yl)-ethyl]-piperidin-4-yl}-benzamide] | 0.52
23 | O=C(NCCN1CCCCC1)c1cc(Cl)ccc1C1CCN(CCN2C(=O)COc3ccccc32)CC1 [Cpd 71, 5-chloro-2-{1-[2-(3-oxo-2,3-dihydro-benzo[1,4]oxazin-4-yl)-ethyl]-piperidin-4-yl}-N-(2-piperidin-1-yl-ethyl)-benzamide] | 0.27
24 | O=C(NCCN1CCNCC1)c1cc(Cl)ccc1C1CCN(CCN2C(=O)COc3ccccc32)CC1 [Cpd 73, 5-chloro-2-{1-[2-(3-oxo-2,3-dihydro-benzo[1,4]oxazin-4-yl)-ethyl]-piperidin-4-yl}-N-(2-piperazin-1-yl-ethyl)-benzamide] | 1.9
25 | CC(C)NC(=O)NCCCCCNC(=O)c1cc(Cl)ccc1C1CCN(CCN2C(=O)COc3ccccc32)CC1 [Cpd 80, 5-chloro-N-[5-(3-isopropyl-ureido)-pentyl]-2-{1-[2-(3-oxo-2,3-dihydro-benzo[1,4]oxazin-4-yl)-ethyl]-piperidin-4-yl}-benzamide] | 0.21
26 | O=C(NCCCCCNC(=O)c1cc(Cl)ccc1C1CCN(CCN2C(=O)COc3ccccc32)CC1)Nc1ccccc1 [Cpd 81, 5-chloro-2-{1-[2-(3-oxo-2,3-dihydro-benzo[1,4]oxazin-4-yl)-ethyl]-piperidin-4-yl}-N-[5-(3-phenyl-ureido)-pentyl]-benzamide] | 0.53
27 | O=C1COc2ccccc2N1CCN1CCC(c2ccc(Cl)cc2)CC1 [Cpd 85, 4-{2-[4-(4-chloro-phenyl)-piperidin-1-yl]-ethyl}-4H-benzo[1,4]oxazin-3-one] | 18
28 | O=C1COc2ccccc2N1CCN1CCC(c2ccccc2)CC1 [Cpd 86, 4-[2-(4-phenyl-piperidin-1-yl)-ethyl]-4H-benzo[1,4]oxazin-3-one] | 24
29 | COc1ccc(C2CCN(CCN3C(=O)COc4ccccc43)CC2)cc1 [Cpd 87, 4-{2-[4-(4-methoxy-phenyl)-piperidin-1-yl]-ethyl}-4H-benzo[1,4]oxazin-3-one] | 47
30 | O=C1COc2ccccc2N1CCN1CCC(c2cccc(F)c2)CC1 [Cpd 88, 4-{2-[4-(3-fluoro-phenyl)-piperidin-1-yl]-ethyl}-4H-benzo[1,4]oxazin-3-one] | 28
31 | O=C1COc2ccccc2N1CCN1CCC(c2ccccc2F)CC1 [Cpd 89, 4-{2-[4-(2-fluoro-phenyl)-piperidin-1-yl]-ethyl}-4H-benzo[1,4]oxazin-3-one] | 23
